{
  "source": "patent EP1708721B1",
  "about": "“MYOCARDIAL PERFUSION IMAGING USING ADENOSINE RECEPTOR AGONISTS” (Gilead Sciences, Inc., priority 2004, dated 2005)",
  "key": {"awake dogs": {"test_system": "awake dogs", "assay": "Example 8: vasodilator effects in different vascular beds of chronically instrumented dogs", "format": "in vivo", "conditions": "250 µg/kg", "source_text": "In this study the vasodilator effects of CVT-3146 were compared to those of ADO in different vascular beds in awake dogs. Dogs were chronically instrumented for measurements of the blood flow in coronary (CBF), mesenteric (MBF), hind limb (LBF), and renal (RBF) vascular beds, and hemodynamics."}, "humans": {"test_system": "humans", "assay": "Example 1: open label study, CBFv by Doppler flow wire after IV bolus in catheterization patients", "format": "in vivo", "conditions": "intracoronary (IC) injection of 18 µg", "method": "The purpose of this open label study was to determine the magnitude and duration of effect of CVT-3146 (10-500 µg) on CBFv in humans.\nMETHODS: Patients undergoing a clinically indicated coronary catheterization with no more than a 70% stenosis in any coronary artery and no more than a 50% stenosis of the study vessel had CBFv determined by Doppler flow wire. Study subject were selected after measuring baseline and peak CBFv after an intracoronary (IC) injection of 18 µg of Ado. Twenty-three patients, who were identified as meeting the study criteria of having a peak to baseline CBFv ratio of ≥ 2.5 in response to Adenosine, received a rapid (≤ 10 sec) peripheral IV bolus of CVT-3146; Doppler signals were stable and interpretable over the time-course of the increase in CBFv in 17 patients."}, "[1]": {"test_system": "subjects (26 men, 9 women)", "assay": "Example 6: stress/rest SPECT myocardial perfusion imaging, adenosine versus CVT-3146", "format": "in vivo, human", "conditions": "SPECT MPI, CVT-3146 400 or 500 mcg IV bolus, A infusion", "method": "To determine the ability of CVT-3146 to produce coronary hyperemia and accurately detect CAD, 35 subjects (26 men, 9 women; 67±10 years) underwent both A and CVT-3146 stress/rest MPI, with 10.0±9.1 days between studies. […] CVT-3146 [400 mcg (n=18), 500 mcg (n=17)] was administered as an IV bolus immediately followed by a saline flush, and then a Tc-99m radiopharmaceutical [sestamibi (n=34), tetrofosmin (n=1)]. SPECT images were uniformly processed, intermixed with control studies (normal and fixed-only defects), and interpreted by three observers in a blinded fashion using a 17-segment model. Quantitative analysis was also performed using 4D MSPECT. In addition to three separate readings, a consensus interpretation was performed and then a direct, same-screen comparison of A and CVT-3146 images undertaken to determine relative differences, using 5 regions per study."}, "awake rats": {"test_system": "awake rats", "assay": "Example 5: sympathoexcitation, heart rate, blood pressure and plasma catecholamines after i.v. bolus", "format": "in vivo", "method": "The present study was carried out to determine whether CVT-3146, a selective A2A adenosine receptor agonist, causes sympathoexcitation. CVT-3146 (0.31µg/kg-50 µg/kg) was given as a rapid i.v. bolus to awake rats and heart rate (HR) and blood pressure (BP) were monitored. CVT-3146 caused an increase in BP and systolic pressure (SP) at lower doses while at higher doses there was a decrease in BP and SP. […] The increase in HR was evident at the lowest dose of CVT-3146 at which there was no appreciable decrease in BP. ZM241385 (30 µg/kg , N=5), an A2A receptor antagonist, attenuated the decrease in BP (CVT-3146: 14±3%, ZM: 1±1 %) and the increase in HR (CVT: 27±3%, ZM: 18±3%) caused by CVT-3146. Pretreatment with metoprolol (MET, 1 mg/kg, n=5), a beta-blocker, attenuated the increase in HR (CVT: 27±3%, MET: 15±2%), but had no effect on hypotension caused by CVT-3146. In the presence of hexamethonium (HEX, 10 mg/kg, n=5), a ganglionic blocker, the tachycardia was prevented (CVT: 27±3%, HEX: -1±2%), but BP was further reduced (CVT: -11±2%, HEX: -49±5%)."}, "[2]": {"conditions": "pretreatment with metoprolol 1 mg/kg, n=5"}, "[3]": {"conditions": "in the presence of hexamethonium 10 mg/kg, n=5"}},
  "data": [
    {"smiles": "Nc1ncnc2c1ncn2[C@@H]1O[C@H](CO)[C@@H](O)[C@H]1O", "note": "[adenosine]", "values": [
      {"measurement": "duration for CBF above 2-fold of the baseline", "setting": "awake dogs", "value": "16 ± 3", "unit": "s"},
      {"measurement": "peak to baseline ratio (CBFv)", "setting": "humans", "value": "3.2 ± 0.5"},
      {"measurement": "summed scores following stress, quantitative methods of analysis", "setting": "[1]; 4D MSPECT", "value": "13.7±1.5"},
      {"measurement": "summed scores following stress, visual", "setting": "[1]; 17-segment model", "value": "13.9±1.5"}
    ]},
    {"smiles": "COCCc1ccc(OCC(O)CNC(C)C)cc1", "note": "(stereo not shown) [metoprolol]", "values": [
      {"measurement": "effect on hypotension caused by CVT-3146", "setting": "awake rats; [2]", "value": "no effect"},
      {"measurement": "increase in HR caused by CVT-3146", "setting": "awake rats; [2]", "value": "15±2", "unit": "%"}
    ]},
    {"smiles": "C[N+](C)(C)CCCCCC[N+](C)(C)C", "note": "[hexamethonium]", "values": [
      {"measurement": "BP (change) caused by CVT-3146", "setting": "awake rats; [3]", "value": "-49±5", "unit": "%"},
      {"measurement": "tachycardia (HR change) caused by CVT-3146", "setting": "awake rats; [3]", "value": "-1±2", "unit": "%"}
    ]},
    {"smiles": "Nc1nc(NCCc2ccc(O)cc2)nc2nc(-c3ccco3)nn12", "note": "[ZM241385]", "values": [
      {"measurement": "decrease in BP caused by CVT-3146", "setting": "awake rats; with ZM241385 30 µg/kg, N=5", "value": "1±1", "unit": "%"},
      {"measurement": "increase in HR caused by CVT-3146", "setting": "awake rats; with ZM241385 30 µg/kg, N=5", "value": "18±3", "unit": "%"}
    ]}
  ]
}
